The record followed here is PubChem BioAssay (NCI).

SMILES strings stand for the structures.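 Each compound was tested at five concentrations against cells in 96-well plates for 48 hours. The concentration for 50% growth inhibition is given as GI50. The concentration for full growth arrest is given as TGI.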

Assay in all cases: NCI tumour cell line growth inhibition, 48 h
Assay [1] deals with NCI-H460 lung.
The test system of assay [2] is NCI-H226 lung.
For assay [3], the system named is MDA-MB-435.
The test system of assay [4] is TK-10 renal.
Assay [5] relates to SK-MEL-5 melanoma.
Assay [6] has as its system SF-295 CNS.
Assay [7] deals with LOX IMVI melanoma.
The test system of assay [8] is NCI-H23 lung.
Assay [9] has as its system SNB-19 CNS.
Assay [10] relates to KM12 colon.

Consider `Nc1nc2ncc(CNc3ccc(C(=O)NC(CCC(=O)O)C(=O)O)cc3)nc2c(=O)[nH]1` (centres undefined), for which the TGI in [1], in assay [2], in assay [3], in assay [4], in assay [5] and in [6] was above 100 µM throughout. The TGI in assay [7], in assay [8], in assay [9] and in assay [10] was above 100 µM in each case.

Turning to `COc1ccc(N2C(=O)C3c4[nH]c5ccc(Br)cc5c4C4CCC(C(C)(C)C)CC4C3C2=O)cc1` (centres undefined), the TGI in assay [1], in [2], in assay [3], in assay [4], in [5] and in [6] was above 100 µM throughout. The TGI in assay [7], in assay [8], in [9] and in [10] was above 100 µM in each case.

`NCCCC[C@H](N)C(=O)Nc1ccc(-c2nc3ccccc3s2)cc1`: the TGI in [1] is 34.9 µM; in assay [2] it was 71.1 µM; in assay [3], 35.1 µM; in assay [4], above 100 µM; in [5] it was 94.4 µM; in assay [6] it was 31 µM. The TGI in assay [7] amounted to 72 µM; in [8], 67.7 µM; in assay [9], 32.3 µM; in assay [10], 34.9 µM.

Consider `CCOC(=O)c1cc2/c(=C\c3ccc(N(C)C)cc3)c3ccccc3n2[n+]1C`, for which the TGI in assay [1] came to 12.6 µM; in assay [2], 24.6 µM; in assay [3] it was 11.5 µM; in assay [4], 21.9 µM; in assay [5], 4.04 µM; in assay [6], 16.1 µM. In addition, the TGI in assay [7] turned out to be 3.78 µM; in assay [8], 12.3 µM; in [9], 15.6 µM; in assay [10], 1.4 µM.

For `CC(C)[C@H](NC(=O)[C@H](N)Cc1ccc(N(CCCl)CCCl)cc1)C(=O)O`, the TGI in assay [1], in assay [2], in [3], in assay [4], in assay [5] and in assay [6] was above 100 µM throughout. Further, the TGI in assay [7], in assay [8], in assay [9] and in assay [10] was above 100 µM throughout.

Regarding `O=C1CSC(c2ccccc2[N+](=O)[O-])N1c1ccc(-c2ccc(-n3c(-c4ccccc4)nc4ccccc4c3=O)cc2)cc1` (centres undefined), the TGI in [1], in assay [2], in assay [3], in assay [4], in assay [5] and in assay [6] was above 100 µM throughout. The TGI in [7], in assay [9] and in assay [10] was above 100 µM throughout.

Consider `O=c1ccn(COC(COCc2ccccc2)COCc2ccccc2)c(=O)[nH]1`, for which the TGI in assay [1], in assay [2], in assay [3], in assay [4], in assay [5] and in assay [6] was above 100 µM in each case. Besides, the TGI in assay [7], in assay [8], in [9] and in assay [10] was above 100 µM throughout.

Regarding `CC1SCc2nc3ccccc3n21` (centres undefined), the TGI in assay [1], in assay [2], in assay [3], in [4], in assay [5] and in assay [6] was above 100 µM each time. Moreover, the TGI in assay [7], in [8], in [9] and in assay [10] was above 100 µM throughout.

In the case of `COc1ccccc1C1ON=C(c2ccc([N+](=O)[O-])cc2)N1C12CC3CC(CC(C3)C1)C2` (centres undefined), the TGI in [1], in [2], in assay [3], in assay [4], in [5] and in assay [6] was above 100 µM each time. Moreover, the TGI in [7], in [8], in assay [9] and in [10] was above 100 µM in each case.

On to `CN1C(=O)C2(C=CC(O)CC2)c2ccccc21` (centres undefined), for which the TGI in assay [1], in assay [2], in [3], in assay [4], in assay [5] and in assay [6] was above 100 µM in each case. The TGI in assay [7], in assay [8], in assay [9] and in [10] was above 100 µM each time.

On to `N#CC(=N)c1ncn(-c2ccc(N)cc2)c1N`, for which the TGI in assay [1], in assay [2], in [3], in assay [4], in assay [5] and in assay [6] was above 100 µM each time. Moreover, the TGI in assay [7], in assay [8], in assay [9] and in assay [10] was above 100 µM each time.

Consider `COc1cc(C2c3cc4c(cc3OC(NNS(=O)(=O)c3ccc(C)cc3)C2C)OCO4)cc(OC)c1O` (centres undefined), for which the TGI in assay [1] stood at 17.5 µM; in assay [2], 60.2 µM; in assay [3] it was 12.4 µM; in assay [4], 39.9 µM; in [5] it was 25 µM; in assay [6], 17.7 µM. In addition, the TGI in assay [7] was found to be 52.3 µM; in assay [8], 76.4 µM; in [9] it was 56.4 µM; in [10], 36.5 µM.

On to `C/C=C(\C)C(O)C(C)C(O)C/C=C(C)/C=C(\C)C/C(C)=C/C/C=C(\C)C(O)C(C)c1ccc(CCC)c(=O)o1` (centres undefined), for which the TGI came to 22.7 µM in assay [1]; 55.6 µM in assay [2]; 22.7 µM in assay [3]; 71.8 µM in assay [4]; 14.3 µM in assay [5]; 16.9 µM in assay [6]. Moreover, the TGI in assay [7] was determined as 28.3 µM; in [8], 26.1 µM; in assay [9], 42.3 µM; in [10] it was 23.8 µM.

For `CC(C)=CCC/C(C)=C/CC/C(C)=C/CC/C(C)=C/CC/C(C)=C/CC/C(C)=C/CC/C(C)=C/CC/C(C)=C/CC/C(C)=C/CO`, the TGI in [1], in assay [2], in assay [3], in assay [4], in assay [5] and in assay [6] was above 100 µM in each case. Further, the TGI in assay [7], in assay [8], in [9] and in assay [10] was above 100 µM each time.

In the case of `COC(=O)c1cc(C(=CCC[C@H]2CC[C@@]3(C)C(CCC4C3CC[C@@]3(C)C4CC[C@@H]3C(C)CCCC(C)C)C2)c2cc(Cl)c(O)c(C(=O)OC)c2)cc(Cl)c1O` (some centres undefined), the TGI in [1], in assay [2], in assay [3], in assay [4], in assay [5] and in assay [6] was above 10 µM each time. Further, the TGI in assay [7], in [8], in assay [9] and in assay [10] was above 10 µM each time.

Take `CN(C)CCn1c(=O)c2ccc(NCCN3CCNCC3)c3c(=O)c4ccccc4n(c1=O)c23`: the TGI in assay [1] stood at 12 µM; in assay [2], 15.2 µM; in assay [3] it was 9.01 µM; in [4], 27.5 µM; in assay [5], 12.7 µM; in assay [6], 18 µM. For the same compound, the TGI in assay [7] is 11.9 µM; in assay [8], 16.8 µM; in [9], 23.9 µM; in assay [10], 16.4 µM.

For `CC(=O)O[C@H]1CC[C@@]2(C)C(=CC[C@@H]3[C@@H]2CC[C@]2(C)c4c(C)nn(-c5ccccc5)c4C[C@@H]32)C1`, the TGI in assay [1] is 47.9 µM; in assay [2], 75.3 µM; in [3], above 100 µM; in [4] it was 51 µM; in assay [5] it was above 100 µM; in [6], 12.9 µM. Further, the TGI in [7] is 27.6 µM; in assay [8], 31.3 µM; in [9], above 100 µM; in assay [10], 86.7 µM.

`CC1(C)Cc2nc3c(cc2C(=O)C1C=N/C(C#N)=C(\N)C#N)C(=O)C(C=N/C(C#N)=C(\N)C#N)C(C)(C)C3` (centres undefined): the TGI in assay [1] turned out to be 8.21 µM; in [2], 12.7 µM; in [3] it was 3.48 µM; in assay [4], 18 µM; in assay [5], 4.66 µM; in assay [6], 7.56 µM. Besides, the TGI in assay [7] was 5.7 µM; in [8], 7.36 µM; in assay [9], 21.5 µM; in [10] it was 3.38 µM.

With `NC(=O)Cc1nc2c(N)ncnc2n1C1OC(CO)C(O)C1O` (centres undefined), the TGI in assay [1], in assay [2], in assay [3], in assay [4], in assay [5] and in assay [6] was above 100 µM throughout. Moreover, the TGI in assay [7], in assay [8], in assay [9] and in assay [10] was above 100 µM in each case.

On to `CC(=O)OCC1OC(n2c(-c3ccccc3)c(C(C)=O)c(-c3cccc4ccccc34)c(C#N)c2=S)C(OC(C)=O)C(OC(C)=O)C1OC(C)=O` (centres undefined), for which the TGI in assay [1], in assay [2], in assay [3], in [4], in [5] and in assay [6] was above 100 µM throughout. Also, the TGI in assay [7], in [8], in [9] and in [10] was above 100 µM in each case.

`CC(=O)NC1(c2cc3ccccc3s2)CCCCCC1`: the TGI in assay [1] was above 100 µM; in [2], above 100 µM; in assay [3], above 100 µM; in assay [4], above 100 µM; in assay [5], 66.7 µM; in [6], above 100 µM. Besides, the TGI in assay [7], in [8], in assay [9] and in assay [10] was above 100 µM in each case.

In the case of `CCCCCCCCCCCCCCCCCCNC(=S)/N=C\C1=C(O)c2ccccc2C1=O`, the TGI was 26.2 µM in assay [1]; 25.6 µM in assay [2]; 30.9 µM in assay [3]; 30.6 µM in [4]; 34.7 µM in assay [5]; 31.2 µM in assay [6]. Also, the TGI in [7] is 17 µM; in assay [8], 31.9 µM; in assay [9], 35.9 µM; in assay [10], 22.7 µM.

With `COc1cc(/C=N/n2c(-c3ccccc3)nn(C(C)=O)c2=O)cc(OC)c1OC`, the TGI is above 39.2 µM in assay [1]; above 100 µM in assay [2]; 1.96 µM in assay [3]; 31.8 µM in assay [4]; 6.68 µM in assay [5]; 26.9 µM in assay [6]. In addition, the TGI was above 100 µM in [7], above 49.4 µM in assay [8], above 52.3 µM in assay [9] and above 59.5 µM in [10].

Take `O=C(O)CCSCc1ccccc1`: the TGI in assay [1], in assay [2], in assay [3], in assay [4], in [5] and in assay [6] was above 100 µM in each case. For the same compound, the TGI in [7], in assay [8], in assay [9] and in assay [10] was above 100 µM in each case.

On to `O=C(Nc1ccc(-n2ccc3c(NC(=O)c4ccccc4)ncnc32)cc1)Nc1ccc(Cl)c(Cl)c1`, for which the GI50 in [1] was 1.71 µM; in assay [2], 11.7 µM; in assay [3], 2.44 µM; in assay [4], 1.44 µM; in assay [5], 7.05 µM; in assay [6] it was 4.5 µM. For the same compound, the GI50 in assay [7] was 2.38 µM; in assay [8], 6.33 µM; in assay [9], 4.58 µM; in assay [10], 1.8 µM. For the same compound, the TGI stood at 5.85 µM in [1]; 29.2 µM in assay [2]; 11.5 µM in assay [3]; 3.46 µM in assay [4]; 15.1 µM in assay [5]; 14.2 µM in assay [6]. In addition, the TGI in assay [7] worked out at 16.3 µM; in assay [8], 22.3 µM; in assay [9], 12.6 µM; in [10], 6.67 µM.
